In ChEMBL document CHEMBL4507257, “Data for DCP probe ABT-100” (2021):

Assays:
[1] = biological target: Ephrin type-A receptor 1 (Homo sapiens) (UniProt P21709); conditions: Compound concentration 1000.0 nM
[2] = biological target: Mast/stem cell growth factor receptor Kit (Homo sapiens) (UniProt P10721); conditions: Compound concentration 1000.0 nM
[3] = biological target: TGF-beta receptor type-2 (Homo sapiens) (UniProt P37173); conditions: Compound concentration 1000.0 nM
[4] = biological target: Serine/threonine-protein kinase Nek7 (Homo sapiens, UniProt Q8TDX7); conditions: Compound concentration 1000.0 nM
[5] = biological target: Homeodomain-interacting protein kinase 2 (Homo sapiens, UniProt Q9H2X6); conditions: Compound concentration 1000.0 nM
[6] = biological target: Serine/threonine-protein kinase B-raf (Homo sapiens) (UniProt P15056); conditions: Compound concentration 1000.0 nM
[7] = biological target: Alpha-2B adrenergic receptor (Homo sapiens) (UniProt P18089); conditions: Compound concentration 10.0 uM
[8] = test system: Phosphatidylinositol 4,5-bisphosphate 3-kinase catalytic subunit alpha isoform (Homo sapiens), P42336 [C420R]; conditions: Compound concentration 1000.0 nM
[9] = biological target: Cyclin-dependent kinase 19 (Homo sapiens) (UniProt Q9BWU1); conditions: Compound concentration 1000.0 nM
[10] = biological target: Myosin light chain kinase 2, skeletal/cardiac muscle (Homo sapiens) (UniProt Q9H1R3); conditions: Compound concentration 1000.0 nM
[11] = biological target: Serine/threonine-protein kinase DCLK3 (Homo sapiens) (UniProt Q9C098); conditions: Compound concentration 1000.0 nM
[12] = biological target: Tyrosine-protein kinase ABL1 (Homo sapiens) (UniProt P00519); conditions: Compound concentration 1000.0 nM
[13] = biological target: Rho-associated protein kinase 1 (Homo sapiens) (UniProt Q13464); conditions: Compound concentration 1000.0 nM
[14] = biological target: Casein kinase I isoform alpha (Homo sapiens) (UniProt P48729); conditions: Compound concentration 1000.0 nM
[15] = test system: Receptor-type tyrosine-protein kinase FLT3 (Homo sapiens), P36888 [N841I]; conditions: Compound concentration 1000.0 nM
[16] = biological target: Fibroblast growth factor receptor 2 (Homo sapiens) (UniProt P21802); conditions: Compound concentration 1000.0 nM
[17] = biological target: Mitogen-activated protein kinase kinase kinase kinase 5 (Homo sapiens) (UniProt Q9Y4K4); conditions: Compound concentration 1000.0 nM
[18] = biological target: Cyclin-dependent kinase 11B (Homo sapiens) (UniProt P21127); conditions: Compound concentration 1000.0 nM
[19] = biological target: Ephrin type-B receptor 1 (Homo sapiens) (UniProt P54762); conditions: Compound concentration 1000.0 nM
[20] = biological target: LIM domain kinase 1 (Homo sapiens) (UniProt P53667); conditions: Compound concentration 1000.0 nM
[21] = test system: Hepatocyte growth factor receptor (Homo sapiens), P08581 [M1250T]; conditions: Compound concentration 1000.0 nM
[22] = biological target: Serine/threonine-protein kinase TAO3 (Homo sapiens) (UniProt Q9H2K8); conditions: Compound concentration 1000.0 nM
[23] = biological target: Cyclin-dependent kinase-like 3 (Homo sapiens) (UniProt Q8IVW4); conditions: Compound concentration 1000.0 nM
[24] = test system: Proto-oncogene tyrosine-protein kinase receptor Ret (Homo sapiens), P07949 [M918T]; conditions: Compound concentration 1000.0 nM
[25] = biological target: Fibroblast growth factor receptor 1 (Homo sapiens) (UniProt P11362); conditions: Compound concentration 1000.0 nM
[26] = biological target: Ribosomal protein S6 kinase alpha-2 (Homo sapiens) (UniProt Q15349); conditions: Compound concentration 1000.0 nM
[27] = biological target: Serine/threonine-protein kinase ULK1 (Homo sapiens) (UniProt O75385); conditions: Compound concentration 1000.0 nM
[28] = biological target: Mitogen-activated protein kinase 8 (Homo sapiens) (UniProt P45983); conditions: Compound concentration 1000.0 nM
[29] = biological target: Beta-2 adrenergic receptor (Homo sapiens) (UniProt P07550); conditions: Compound concentration 10.0 uM
[30] = biological target: 5-hydroxytryptamine receptor 5A (Homo sapiens) (UniProt P47898); conditions: Compound concentration 10.0 uM
[31] = biological target: Serine/threonine-protein kinase PAK 2 (Homo sapiens) (UniProt Q13177); conditions: Compound concentration 1000.0 nM
[32] = biological target: Eukaryotic translation initiation factor 2-alpha kinase 1 (Homo sapiens) (UniProt Q9BQI3); conditions: Compound concentration 1000.0 nM
[33] = biological target: T1, Muscarinic acetylcholine receptor M4 (Homo sapiens) (UniProt P08173); conditions: Compound concentration 10.0 uM
T1 sequence (whole entry): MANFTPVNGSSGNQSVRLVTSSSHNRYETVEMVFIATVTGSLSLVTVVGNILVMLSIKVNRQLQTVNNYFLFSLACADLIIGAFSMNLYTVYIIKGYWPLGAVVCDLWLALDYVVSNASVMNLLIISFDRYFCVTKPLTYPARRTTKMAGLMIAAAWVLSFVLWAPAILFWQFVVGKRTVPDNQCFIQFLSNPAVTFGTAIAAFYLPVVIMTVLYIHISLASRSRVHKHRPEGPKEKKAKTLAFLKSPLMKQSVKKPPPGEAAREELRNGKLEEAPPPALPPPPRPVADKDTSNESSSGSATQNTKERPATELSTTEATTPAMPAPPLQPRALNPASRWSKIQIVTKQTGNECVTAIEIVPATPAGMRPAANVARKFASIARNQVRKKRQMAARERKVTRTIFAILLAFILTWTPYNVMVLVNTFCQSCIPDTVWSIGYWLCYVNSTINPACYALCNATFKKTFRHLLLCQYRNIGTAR

[34] = biological target: Casein kinase II subunit alpha' (Homo sapiens) (UniProt P19784); conditions: Compound concentration 1000.0 nM
[35] = biological target: Serine/threonine-protein kinase haspin (Homo sapiens) (UniProt Q8TF76); conditions: Compound concentration 1000.0 nM
[36] = biological target: Calcium/calmodulin-dependent protein kinase type IV (Homo sapiens) (UniProt Q16566); conditions: Compound concentration 1000.0 nM
[37] = biological target: Phosphorylase b kinase gamma catalytic chain, skeletal muscle/heart isoform (Homo sapiens) (UniProt Q16816); conditions: Compound concentration 1000.0 nM
[38] = biological target: Serine/threonine-protein kinase N2 (Homo sapiens) (UniProt Q16513); conditions: Compound concentration 1000.0 nM
[39] = test system: Serine/threonine-protein kinase B-raf (Homo sapiens), P15056 [V600E]; conditions: Compound concentration 1000.0 nM

Homeodomain-interacting protein kinase 2, sequence (Q9H2X6 whole entry, looked up): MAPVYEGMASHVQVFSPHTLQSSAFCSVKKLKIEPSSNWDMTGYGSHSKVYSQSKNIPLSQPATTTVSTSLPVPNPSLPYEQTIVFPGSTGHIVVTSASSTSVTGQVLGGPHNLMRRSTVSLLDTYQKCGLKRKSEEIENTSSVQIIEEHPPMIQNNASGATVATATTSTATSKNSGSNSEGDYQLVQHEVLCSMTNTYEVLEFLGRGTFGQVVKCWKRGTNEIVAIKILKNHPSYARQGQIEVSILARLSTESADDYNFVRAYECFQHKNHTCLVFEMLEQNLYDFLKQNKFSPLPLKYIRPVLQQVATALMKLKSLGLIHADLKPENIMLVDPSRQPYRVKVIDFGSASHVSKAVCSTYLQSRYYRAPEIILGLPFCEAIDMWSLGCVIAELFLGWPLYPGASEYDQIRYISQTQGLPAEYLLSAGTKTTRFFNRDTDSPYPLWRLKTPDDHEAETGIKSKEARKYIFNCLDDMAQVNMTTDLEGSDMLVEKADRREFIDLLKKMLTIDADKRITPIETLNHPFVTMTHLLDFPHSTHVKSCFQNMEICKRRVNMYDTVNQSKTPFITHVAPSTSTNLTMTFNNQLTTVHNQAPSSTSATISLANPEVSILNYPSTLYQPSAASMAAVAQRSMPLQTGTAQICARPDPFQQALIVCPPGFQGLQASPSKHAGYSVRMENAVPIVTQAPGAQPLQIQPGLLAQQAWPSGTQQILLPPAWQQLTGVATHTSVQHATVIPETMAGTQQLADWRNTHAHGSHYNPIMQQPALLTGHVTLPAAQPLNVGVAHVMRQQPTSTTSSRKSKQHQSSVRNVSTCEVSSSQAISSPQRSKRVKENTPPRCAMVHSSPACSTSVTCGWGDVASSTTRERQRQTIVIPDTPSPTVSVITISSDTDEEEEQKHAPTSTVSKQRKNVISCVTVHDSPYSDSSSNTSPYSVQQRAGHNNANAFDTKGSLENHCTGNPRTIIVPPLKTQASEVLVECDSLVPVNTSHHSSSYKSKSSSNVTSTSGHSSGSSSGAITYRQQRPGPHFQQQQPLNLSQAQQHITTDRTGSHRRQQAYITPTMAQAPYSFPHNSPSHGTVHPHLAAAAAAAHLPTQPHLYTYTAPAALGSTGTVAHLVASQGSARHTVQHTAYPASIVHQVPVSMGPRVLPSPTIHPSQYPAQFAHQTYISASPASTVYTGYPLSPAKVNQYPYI
Fibroblast growth factor receptor 2 (Homo sapiens), sequence (P21802 22-821 limits assumed): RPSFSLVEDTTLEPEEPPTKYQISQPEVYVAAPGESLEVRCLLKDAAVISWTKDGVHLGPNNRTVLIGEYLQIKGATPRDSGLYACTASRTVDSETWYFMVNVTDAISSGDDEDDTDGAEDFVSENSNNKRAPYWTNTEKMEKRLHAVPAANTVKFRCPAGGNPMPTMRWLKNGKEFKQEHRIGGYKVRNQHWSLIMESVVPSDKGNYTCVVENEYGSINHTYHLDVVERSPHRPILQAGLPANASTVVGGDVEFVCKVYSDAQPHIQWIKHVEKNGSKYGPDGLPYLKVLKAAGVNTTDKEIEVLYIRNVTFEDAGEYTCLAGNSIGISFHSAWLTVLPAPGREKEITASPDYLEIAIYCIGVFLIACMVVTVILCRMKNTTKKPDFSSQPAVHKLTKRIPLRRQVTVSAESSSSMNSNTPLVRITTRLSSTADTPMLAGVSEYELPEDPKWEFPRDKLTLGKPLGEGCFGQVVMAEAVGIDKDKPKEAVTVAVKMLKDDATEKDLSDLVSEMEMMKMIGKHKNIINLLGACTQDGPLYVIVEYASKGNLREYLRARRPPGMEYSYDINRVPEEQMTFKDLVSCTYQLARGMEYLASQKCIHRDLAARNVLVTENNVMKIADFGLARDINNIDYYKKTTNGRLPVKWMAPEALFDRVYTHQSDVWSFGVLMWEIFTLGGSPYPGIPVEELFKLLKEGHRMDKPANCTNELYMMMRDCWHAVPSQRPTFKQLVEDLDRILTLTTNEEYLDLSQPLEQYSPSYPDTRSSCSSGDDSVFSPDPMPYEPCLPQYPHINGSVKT
Casein kinase II subunit alpha' (Homo sapiens), sequence (P19784 whole entry, looked up): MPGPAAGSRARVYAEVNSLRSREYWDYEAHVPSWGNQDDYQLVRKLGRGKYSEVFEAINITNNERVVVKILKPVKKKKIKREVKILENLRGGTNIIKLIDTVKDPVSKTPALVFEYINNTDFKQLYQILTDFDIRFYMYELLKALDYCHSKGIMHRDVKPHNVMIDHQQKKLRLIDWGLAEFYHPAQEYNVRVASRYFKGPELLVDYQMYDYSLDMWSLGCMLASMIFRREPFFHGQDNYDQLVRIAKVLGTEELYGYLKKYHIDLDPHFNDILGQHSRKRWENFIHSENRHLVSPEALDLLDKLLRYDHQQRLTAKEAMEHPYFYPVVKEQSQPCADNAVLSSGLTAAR
Myosin light chain kinase 2, skeletal/cardiac muscle (Homo sapiens), sequence (Q9H1R3 whole entry): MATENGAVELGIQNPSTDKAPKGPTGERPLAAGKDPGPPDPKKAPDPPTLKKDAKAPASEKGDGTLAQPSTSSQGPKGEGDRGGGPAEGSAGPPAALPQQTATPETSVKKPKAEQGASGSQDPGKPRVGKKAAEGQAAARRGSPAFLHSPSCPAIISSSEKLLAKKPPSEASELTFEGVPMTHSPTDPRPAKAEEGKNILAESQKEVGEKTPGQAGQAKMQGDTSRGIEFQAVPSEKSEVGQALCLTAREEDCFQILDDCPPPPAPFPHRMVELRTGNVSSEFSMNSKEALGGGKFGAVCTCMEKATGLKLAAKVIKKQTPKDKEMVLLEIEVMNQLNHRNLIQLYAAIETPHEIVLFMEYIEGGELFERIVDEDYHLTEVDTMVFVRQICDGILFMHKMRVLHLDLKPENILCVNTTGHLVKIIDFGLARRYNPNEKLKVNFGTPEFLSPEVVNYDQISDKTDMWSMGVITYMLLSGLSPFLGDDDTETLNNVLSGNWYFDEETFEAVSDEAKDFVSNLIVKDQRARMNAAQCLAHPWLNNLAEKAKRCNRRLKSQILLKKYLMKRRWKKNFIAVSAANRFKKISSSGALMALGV
Cyclin-dependent kinase 11B (Homo sapiens), sequence (P21127 whole entry): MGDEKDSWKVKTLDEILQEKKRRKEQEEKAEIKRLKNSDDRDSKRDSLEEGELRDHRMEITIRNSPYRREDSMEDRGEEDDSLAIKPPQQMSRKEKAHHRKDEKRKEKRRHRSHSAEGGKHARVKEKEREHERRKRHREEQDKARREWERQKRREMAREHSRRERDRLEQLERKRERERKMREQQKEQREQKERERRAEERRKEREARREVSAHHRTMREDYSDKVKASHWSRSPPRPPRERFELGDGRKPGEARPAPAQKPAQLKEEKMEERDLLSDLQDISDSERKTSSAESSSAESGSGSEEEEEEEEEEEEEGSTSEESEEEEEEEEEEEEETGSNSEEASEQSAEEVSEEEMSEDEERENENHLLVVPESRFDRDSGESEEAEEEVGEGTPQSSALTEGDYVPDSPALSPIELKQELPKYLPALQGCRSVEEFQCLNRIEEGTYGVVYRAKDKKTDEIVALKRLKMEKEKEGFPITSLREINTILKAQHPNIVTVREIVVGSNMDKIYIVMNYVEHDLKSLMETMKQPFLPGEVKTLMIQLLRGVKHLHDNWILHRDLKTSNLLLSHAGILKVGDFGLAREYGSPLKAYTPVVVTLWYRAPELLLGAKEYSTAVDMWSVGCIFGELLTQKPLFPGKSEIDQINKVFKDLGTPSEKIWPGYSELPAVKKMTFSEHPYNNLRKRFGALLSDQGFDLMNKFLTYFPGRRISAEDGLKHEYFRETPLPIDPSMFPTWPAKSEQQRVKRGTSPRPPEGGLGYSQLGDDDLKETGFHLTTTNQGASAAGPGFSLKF
Serine/threonine-protein kinase PAK 2 (Homo sapiens), sequence (Q13177 whole entry): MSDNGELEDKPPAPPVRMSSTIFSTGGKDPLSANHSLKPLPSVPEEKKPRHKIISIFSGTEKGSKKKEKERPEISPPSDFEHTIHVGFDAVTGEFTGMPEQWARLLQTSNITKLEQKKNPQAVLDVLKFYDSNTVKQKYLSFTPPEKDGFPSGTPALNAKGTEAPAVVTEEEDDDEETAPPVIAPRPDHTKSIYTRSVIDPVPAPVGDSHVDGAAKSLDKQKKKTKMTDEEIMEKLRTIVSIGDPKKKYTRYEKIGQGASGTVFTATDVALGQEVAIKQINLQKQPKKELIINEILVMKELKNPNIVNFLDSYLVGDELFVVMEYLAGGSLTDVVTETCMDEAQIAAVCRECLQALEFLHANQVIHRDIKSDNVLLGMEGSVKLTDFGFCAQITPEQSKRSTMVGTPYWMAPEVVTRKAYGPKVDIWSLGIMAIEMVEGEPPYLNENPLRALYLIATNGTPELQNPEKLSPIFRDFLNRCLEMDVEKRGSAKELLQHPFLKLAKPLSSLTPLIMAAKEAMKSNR
Mitogen-activated protein kinase 8 (Homo sapiens), sequence (P45983 whole entry): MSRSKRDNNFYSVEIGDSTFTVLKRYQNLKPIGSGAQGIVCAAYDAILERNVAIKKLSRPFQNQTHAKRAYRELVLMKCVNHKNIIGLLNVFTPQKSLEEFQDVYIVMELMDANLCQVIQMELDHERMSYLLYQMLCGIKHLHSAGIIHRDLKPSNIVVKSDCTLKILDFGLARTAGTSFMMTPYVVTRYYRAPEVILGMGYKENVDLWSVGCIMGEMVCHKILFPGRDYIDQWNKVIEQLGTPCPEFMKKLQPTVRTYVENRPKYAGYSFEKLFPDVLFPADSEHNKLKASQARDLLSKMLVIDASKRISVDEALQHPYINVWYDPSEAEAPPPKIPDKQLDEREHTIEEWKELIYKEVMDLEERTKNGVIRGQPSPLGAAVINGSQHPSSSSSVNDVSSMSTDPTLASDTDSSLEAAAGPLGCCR
Casein kinase I isoform alpha (Homo sapiens), sequence (P48729 2-337 limits assumed): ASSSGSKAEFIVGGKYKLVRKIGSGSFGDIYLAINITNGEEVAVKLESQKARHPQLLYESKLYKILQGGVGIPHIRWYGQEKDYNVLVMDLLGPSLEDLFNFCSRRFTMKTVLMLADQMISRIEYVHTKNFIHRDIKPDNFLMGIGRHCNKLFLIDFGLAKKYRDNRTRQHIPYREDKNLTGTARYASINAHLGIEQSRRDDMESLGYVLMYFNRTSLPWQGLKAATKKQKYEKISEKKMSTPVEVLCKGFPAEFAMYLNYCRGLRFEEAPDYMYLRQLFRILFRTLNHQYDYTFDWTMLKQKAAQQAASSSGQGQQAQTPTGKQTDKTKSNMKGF

Structure (SMILES)	residual activity [1]	residual activity [2]	residual activity [3]	residual activity [4]	residual activity [5]	residual activity [6]	inhibition [7]	residual activity [8]	residual activity [9]	residual activity [10]	residual activity [11]	residual activity [12]	residual activity [13]	residual activity [14]	residual activity [15]	residual activity [16]	residual activity [17]	residual activity [18]	residual activity [19]	residual activity [20]	further results
Cn1cncc1[C@@](O)(COc1ccc(C#N)cc1-c1ccc(OC(F)(F)F)cc1)c1ccc(C#N)cc1 [A-108]	93%	98%	96%	99%	100%	100%	20%	90%	64%	100%	94%	96%	100%	78%	100%	100%	100%	92%	100%	100%	residual activity [21]: 97%; residual activity [22]: 100%; residual activity [23]: 81%; residual activity [24]: 98%; residual activity [25]: 100%; residual activity [26]: 98%; residual activity [27]: 95%; residual activity [28]: 77%; inhibition [29]: 23.1%; inhibition [30]: 0.81%; residual activity [31]: 96%; residual activity [32]: 100%; inhibition [33]: -9.7%; residual activity [34]: 100%; residual activity [35]: 100%; residual activity [36]: 100%; residual activity [37]: 95%; residual activity [38]: 85%; residual activity [39]: 100%
Cn1cncc1[C@](O)(COc1ccc(C#N)cc1-c1ccc(OC(F)(F)F)cc1)c1ccc(C#N)cc1 [ABT-100]	38%	100%	100%	46%	100%	84%	8.46%	100%	84%	78%	99%	100%	100%	100%	91%	86%	100%	100%	98%	89%	residual activity [21]: 100%; residual activity [22]: 87%; residual activity [23]: 87%; residual activity [24]: 95%; residual activity [25]: 62%; residual activity [26]: 85%; residual activity [27]: 100%; residual activity [28]: 100%; inhibition [29]: 0.0774%; inhibition [30]: 1.81%; residual activity [31]: 93%; residual activity [32]: 100%; inhibition [33]: 6.8%; residual activity [34]: 100%; residual activity [35]: 100%; residual activity [36]: 100%; residual activity [37]: 63%; residual activity [38]: 100%; residual activity [39]: 82%
